# Measured values: patent publication EP0563686A1, “Utilization of 3 substituted amino isoxazole derivatives against endoparasites, new 3 substituted amino isoxazols and process for their preparation” (BAYER AG, priority 1992, dated 1993)
# What was measured:
# [1] = system: Trichostrongylus colubriformis; assay: In vivo nematode test, Trichostrongylus colubriformis / sheep (faecal worm egg count before and after treatment); set-up: species or system Schaf; conditions: experimentally infected sheep, treated after prepatency, pure active in gelatin capsules, oral, dose giving complete cessation of egg excretion, read-out: Dosis effectiva
# Description: Trichostrongylus colubriformis / Schaf
# Experimentell mit Trichostrongylus colubriformis infizierte Schafe wurden nach Ablauf der Präpatenzzeit des Parasiten behandelt. Die Wirkstoffe wurden als reiner Wirkstoff in Gelatinekapseln oral appliziert.
# (§1) Der Wirkungsgrad wird dadurch bestimmt, daß man die mit dem Kot ausgeschiedenen Wurmeier vor und nach der Behandlung quantitativ auszählt.
# Ein völliges Sistieren der Eiausscheidung nach der Behandlung bedeutet, daß die Würmer abgetrieben wurden oder so geschädigt sind, daß sie keine Eier mehr produzieren (Dosis effectiva).
# (§2) Geprüfte Wirkstoffe und wirksame Dosierungen (Dosis effectiva) sind aus der nachfolgenden Tabelle ersichtlich.
# [2] = system: Haemonchus contortus; assay: In vivo nematode test, Haemonchus contortus / sheep (faecal worm egg count before and after treatment); set-up: species or system Schaf; conditions: experimentally infected sheep, treated after prepatency, pure active in gelatin capsules, oral, dose giving complete cessation of egg excretion, read-out: Dosis effectiva
# Description: Haemonchus contortus / Schaf
# Experimentell mit Haemonchus contortus infizierte Schafe wurden nach Ablauf der Präpatenzzeit des Parasiten behandelt. Die Wirkstoffe wurden als reiner Wirkstoff in Gelatinekapseln oral appliziert.
# as §1
# Ein völliges Sistieren der Eiausscheidung nach der Behandlung bedeutet, daß die Wärmer abgetrieben wurden oder so geschädigt sind, daß sie keine Eier mehr produzieren (Dosis effectiva).
# as §2
Compound,minimal effective dose [1],minimal effective dose [2]
"CCNc1cc(-c2ccc(OC)cc2)on1 [Beispiel 4, 3-Ethylamino-5-(4-methoxyphenyl)-isoxazol]",10 mg/kg,10 mg/kg
COc1ccc(-c2cc(NC3CC3)no2)cc1 [Beispiel 6],10 mg/kg,10 mg/kg
COc1ccc(-c2cc(NCC3CC3)no2)cc1 [Beispiel 10],10 mg/kg,10 mg/kg
COc1ccc(-c2cc(NCCc3ccccc3)no2)cc1 [Beispiel 13],–,10 mg/kg
CCNc1cc(-c2ccc(SC(F)(F)F)cc2)on1 [Beispiel 22],10 mg/kg,10 mg/kg
Brc1ccc(-c2cc(NC3CCCCC3)no2)cc1 [Beispiel 43],–,10 mg/kg
CCNc1cc(-c2cccnc2)on1 [Beispiel 57],10 mg/kg,10 mg/kg
CCNc1cc(-c2ccsc2)on1 [Beispiel 63],10 mg/kg,–
